Laboratory results published in patent US20110257145A1, “METHOD OF TREATING NEUROLOGICAL DISEASES” (THE BOARD OF TRUSTEES OF THE UNIVERSITY OF ILLINOIS, priority 2008, published 2011).
Read-outs that look alike come from different tables or passages of the source. Blank lines part the entries; values can stand above or below the compound they belong to.

Columns and labels:
[1] = tested on: HEK293 cells stably transfected with human APP; test: sAPPα ELISA; format: cell-based
Method: (§1) sAPPα and Aβ40 detection: […] cell lines stably transfected with human APP were maintained in Dulbecco's modified Eagle's medium (DMEM) with 10% fetal bovine serum (FBS). Cells were seeded onto 6-well plates, and incubated at 37° C. overnight. Compounds 9-14 were first dissolved in dimethyl sulfoxide (DMSO) as a 10 mM stock and diluted into the respective concentrations with fresh DMEM with 10% FBS. After exposure overnight, the cell medium was replaced by fresh medium containing the PKC agonist. After incubation for 48 hours, the medium was collected, and both the soluble APP (sAPPα) and Aβ40 levels in the medium were determined by using the sAPPα and Aβ40 ELISA kits obtained from Biosource, Camarillo, Calif. according to the manufacturer's instructions.
In FIG. 1, the data are presented as percent of control±SEM.

mouse PKCα = mouse PKCα (Mus musculus, UniProt P20444); test: PKC binding affinity
Method: ClogP and topological polar surface area (tPSA) values were calculated (Table 1). ClogP values for the tested compounds ranged from 0.92 to 4.67. The tPSA values were in the range of 61.80-90.90. […] The binding affinities of the compounds for mouse PKCα were determined as described previously. The Ki values for each of the compounds 2, 3, 6, 7, and 9-14, and known […] bryostatin 1 and SAHA are listed in Table 1.

[2] = tested on: HEK293 cells stably transfected with human APP; test: Aβ40 ELISA; format: cell-based; details: 24 h
Method: as §1
It is theorized, but not relied upon, that if APP synthesis is held relatively constant, the production of Aβ decreases if more of the APP is processed through the α-secretase pathway. To confirm that treatment with a present benzolactam enhances the α-secretase APP-processing pathway, compounds 9-14 were examined to determine whether the increased levels of sAPPα corresponds to a decrease in the production of Aβ40. The cells were treated for 24 h at concentrations ranging from 0.001 to 10 μM, and Aβ40 levels were measured by Aβ40 ELISA. […] In FIG. 2, the data are presented as in FIG. 1, with “*” and “**” having the same meaning. […] In general, there was good agreement between an ability of a present benzolactam to increase sAPPα and its ability to decrease Aβ40.

primary cortical neurons [3] = test: neuron viability in the absence of HCA (MTT); format: cell-based, rat; details: concentration not given
Method: (§2) Primary neurons and cell culture: Cell cultures were obtained from the cerebral cortex of fetal Sprague-Dawley rats (embryonic day 17), as described previously. All experiments were initiated 24 hours after plating. Under these conditions, the cells are not susceptible to glutamate-mediated excitotoxicity.
Oxidative toxicity and neuron viability assays: For cytotoxicity studies, cells were rinsed with warm phosphate-buffered saline (PBS), then placed in minimum essential medium (Invitrogen, Carlsbad, Calif.) containing glucose (5.5 g L^−1), 10% fetal calf serum, L-glutamine (2 mM), and cysteine (100 μM). […] Viability was assessed after 48 hours by calceinacetoxymethyl ester (AM)/ethidium homodimer-1 staining (live/dead assay; Molecular Probes, Eugene, Oreg., USA) under fluorescence microscopy and the MTT assay method. […]
(§3) In one embodiment, the present invention relates to a method of treating an individual suffering from a disease or condition wherein activation of PKC and inhibition of HDAC provides a benefit comprising administering a therapeutically effective amount of a compound of structural formula (I) to an individual in need thereof. […] Neuron survival was quantified by MTT assay, a colorimetric assay in which the amount of yellow MTT is reduced to purple formazan by active mitochondrial reductase enzymes in viable cells.

AD cells [4] = details: cited from earlier work
[5] = tested on: APP-[V717I] transgenic mice; details: in vivo; cited from earlier work
AD cells [6] = details: cited from earlier work; remark: listed apart in the source
[7] = tested on: acetylated histone H4 in primary cortical neurons; test: Western blot of histone H4 acetylation; format: cell-based, rat
Method: as §2
Histone precipitation and Western blot analysis: Treated neurons (about 1×10^6) were incubated in hypotonic lysis buffer (1 mL) containing Tris-HCl (pH 8.0, 10 mM), KCl (1 mM), MgCl2 (1.5 mm), DTT (1 mM), aprotinin (1 mM), pepstatin (1 mM), and PMSF (0.4 mM) for 30 minutes, rotating at 4° C. Nuclei were pelleted by centrifugation for 10 minutes at 10,000 rpm (9000 g), resuspended in H2SO4 (0.4N, 200 μL), and rotated for 12 hours at 4° C. Following centrifugation at 13,000 rpm (16,000 g value) for 10 minutes, the supernatant was transferred to anew tube, and the histone proteins were precipitated by adding 100% trichloroacetic acid (TCA: 66 μL) dropwise followed by 30 minutes incubation on ice. Histone proteins were pelleted by centrifugation at 13,000 rpm (16,000 g) for 10 minutes, washed twice with ice-cold acetone, dried at room temperature for 20-40 minutes, and resuspended in H2O ([…]). Total histone proteins (20 μL) were boiled in Laemmli buffer and electrophoresed under reducing conditions on 15% polyacrylamide gel. Histone proteins were transferred to a nitrocellulose membrane (Bio-Rad, Hercules, Calif.). Nonspecific binding was inhibited by incubation in Tris-buffered saline with Tween 20 (TBST: 50 mM Tris-HCl pH 8.0, 0.9% NaCl, and 0.1% Tween 20) containing 5% nonfat dried milk for at least 1.5 hours. Primary antibodies against acetylated histone H4 or total histone H4 (Upstate) were diluted 1:1000 or 1:4000, respectively, in TBST containing 5% milk and incubated with the membrane for 3 hours at room temperature, followed by incubation with anti-rabbit horseradish peroxidase-conjugated secondary antibodies for 2 h at room temperature. Acetyl histone H4 and total histone H4 immunoreactivity was detected according to the enhanced chemiluminescent protocol (Amersham Biosciences, Fairfield, Conn.).
To illustrate the HDAC-inhibitory activity of the present benzolactams, an ability of the compounds to alter histone acetylation levels was examined. FIG. 3 contains Western blot analyses showing the effect of percent benzolactam compounds at 10 μM (FIG. 3A) and 20 μM (FIG. 3B) in the acetylation levels of histone H4. Cultures of primary cortical neurons were treated with the various benzolactam compounds (at 10 μM) for a period of 8 hours, and Western blot analysis then was performed using acetyl-histone H4-specific antibodies (FIG. 3A).

primary cortical neurons [8] = test: HCA oxidative stress neuroprotection, cortical neurons (MTT); format: cell-based, rat; details: up to 20 μM, presence of HCA, 48 hours
Method: as §2
Oxidative toxicity and neuron viability assays: For cytotoxicity studies, cells were rinsed with warm phosphate-buffered saline (PBS), then placed in minimum essential medium (Invitrogen, Carlsbad, Calif.) containing glucose (5.5 g L^−1), 10% fetal calf serum, L-glutamine (2 mM), and cysteine (100 μM). Oxidative stress was induced by the addition of the glutamate analogue HCA ([…]) to the media. HCA was diluted from 100-fold concentrated solutions that were adjusted to pH 7.5. In combination with HCA, TSA, SAHA, or the novel PKC-HDAC compounds were added at various concentrations. Viability was assessed after 48 hours by calceinacetoxymethyl ester (AM)/ethidium homodimer-1 staining (live/dead assay; Molecular Probes, Eugene, Oreg., USA) under fluorescence microscopy and the MTT assay method. Each bar represents the mean ±SEM of four replicates.
In this model of neurodegeneration, oxidative stress is induced by the presence of the glutamate analogue homocysteate (HCA) at a concentration of 5 mM, which depletes the cellular antioxidant glutathione through competitive inhibition of cysteine uptake at the level of the plasma membrane cysteine/glutamate antiporter system xc-. […]
as §3

[9] = concentration not given in the sentence (FIG. 3: 10 and 20 μM)
[10] = mouse PKCα, read-out: K1[nm] ± SEM

SMILES: CC(=O)SCCCCCCCOc1ccc2c(c1)N(C)C(C(C)C)C(=O)NC(CO)C2 (stereo not drawn) [Compound 13, Thioacetic acid S-[7-(5-hydroxymethyl-2-isopropyl-1-methyl-3-oxo-1,2,3,4,5,6-hexahydrobenzo[e][1,4]diazocin-9-yloxy)heptyl] ester]
- sAPPα levels ([1]; 10 μm): increase in sAPPα levels
- Ki (mouse PKCα): 4.5 ± 0.4 nM
- Aβ40 levels ([2]; 1-10 μM): significant decrease in Aβ40 levels

SMILES: CC(=O)SCCCCCOc1ccc2c(c1)N(C)C(C(C)C)C(=O)NC(CO)C2 (stereo not drawn) [Compound 11, Thioacetic acid S-[5-(5-hydroxymethyl-2-isopropyl-1-methyl-3-oxo-1,2,3,4,5,6-hexahydrobenzo[e][1,4]diazocin-9-yloxy)pentyl] ester]
- sAPPα levels ([1]; 10 μm): increase in sAPPα levels
- Aβ40 levels ([2]; 10 μM): significant decrease in Aβ40 levels

SMILES: CC(/C=C/C(=O)NO)=C\[C@@H](C)C(=O)c1ccc(N(C)C)cc1 [TSA, trichostatin A]
- toxicity in neuron viability measurements (primary cortical neurons [3]): considerable dose dependent toxicity

SMILES: CCCCCCCCC#Cc1ccc2c(c1)CC(CO)NC(=O)C(C(C)C)N2C (centres unmarked) [BL, 8-(1-decynyl)benzolactam]
- secretion of sAPPα (AD cells [4]): enhances the secretion of sAPPα
- Aβ40 in the brains [5]: decrease
- amount of sAPPα in the brains [5]: significantly increase
- K+ channel defects (AD cells [6]): reverses

SMILES: CC(C)[C@H]1C(=O)N[C@H](CO)Cc2ccc(OC(=O)CCCCC3CCSS3)cc2N1C (stereo partly drawn) [Compound 7, (2S,5S)-1,2,3,4,5,6-Hexahydro-5-(hydroxymethyl)-2-isopropyl-1-methyl-3-oxobenzo[e][1,4]diazocin-9-yl-5-(1,2-dithiolan-3-yl)pentanoate]
- histone H4 acetylation [7, 9]: failed to induce histone H4 acetylation
- Ki (mouse PKCα; [10]): 5.7 ± 1 nM
- neuroprotection (primary cortical neurons [8]): no neuroprotection

SMILES: CC(=O)SCCCCCCCCOc1ccc2c(c1)N(C)C(C(C)C)C(=O)NC(CO)C2 (stereo not drawn) [Compound 14, Thioacetic acid S-[8-(5-hydroxymethyl-2-isopropyl-1-methyl-3-oxo-1,2,3,4,5,6-hexahydrobenzole[e][1,4]diazocin-9-yloxy)octyl] ester]
- sAPPα levels ([1]; 1-10 μm): increase in sAPPα levels
- Aβ40 levels ([2]; 1-10 μM): significant decrease in Aβ40 levels

SMILES: CC(C)[C@H]1C(=O)N[C@H](CO)Cc2ccc(O)cc2N1C [Compound 2, 9-Hydroxy-5-hydroxymethyl-2-isopropyl-1-methyl-(2S,5S)-1,4,5,6-tetrahydro-2H-benzo[e][1,4]diazocin-3-one]
- Ki (mouse PKCα): 4840 ± 320 nM

SMILES: C=CCCCCCOc1ccc2c(c1)N(C)C(C(C)C)C(=O)NC(CO)C2 (centres unmarked) [Compound 3, 9-Hept-6-enyloxy-5-hydroxymethyl-2-isopropyl-1-methyl-1,4,5,6-tetrahydro-2H-benzo[e][1,4]diazocin-3-one]
- histone H4 acetylation ([7]; 20 μM): did not increase histone H4 acetylation
- neuroprotection (primary cortical neurons [8]): no neuroprotection

SMILES: CC(=O)SCCCCOc1ccc2c(c1)N(C)C(C(C)C)C(=O)NC(CO)C2 (stereo not drawn) [Compound 10, Thioacetic acid S-[4-(5-hydroxymethyl-2-isopropyl-1-methyl-3-oxo-1,2,3,4,5,6-hexahydrobenzo[e][1,4]diazocin-9-yloxy)butyl] ester]
- histone H4 acetylation ([7]; 10 μM, 8 hours): less effective at inducing histone H4 acetylation
- histone H4 acetylation ([7]; 20 μM): modest acetylation was observed
- sAPPα levels ([1]; 1 nM): statistically significant elevation in sAPPα
- Aβ40 levels ([2]; 10 μM): significant decrease in Aβ40 levels

SMILES: CC(C)[C@H]1C(=O)N[C@H](CO)Cc2ccc(OCCNC(=O)CCCCC3CCSS3)cc2N1C (stereo partly drawn) [Compound 6, 1N-{2-[5-Hydroxymethyl-2-isopropyl-1-methyl-3-oxo-(2S,5S)-1,2,3,4,5,6-hexahydrobenzo[e][1,4]diazocin-9-yloxy]ethyl}-5-(1,2-dithiolan-3-yl)pentanamide]
- histone H4 acetylation [7, 9]: failed to induce histone H4 acetylation
- Ki (mouse PKCα; [10]): 148 ± 18 nM
- neuroprotection (primary cortical neurons [8]): no neuroprotection

- Ki (mouse PKCα; [10]): 8.7 ± 0.7 nM
SMILES: CC(=O)SCCCCCCOc1ccc2c(c1)N(C)C(C(C)C)C(=O)NC(CO)C2 (stereo not drawn) [Compound 12, Thioacetic acid S-[6-(5-hydroxymethyl-2-isopropyl-1-methyl-3-oxo-1,2,3,4,5,6-hexahydrobenzo[e][1,4]diazocin-9-yloxy)hexyl] ester]
- sAPPα levels ([1]; 1-10 μm): increase in sAPPα levels
- Aβ40 levels ([2]; 10 μM): significant decrease in Aβ40 levels

SMILES: CC(=O)SCCCOc1ccc2c(c1)N(C)C(C(C)C)C(=O)NC(CO)C2 (stereo not drawn) [Compound 9, Thioacetic acid S-[3-(5-hydroxymethyl-2-isopropyl-1-methyl-3-oxo-1,2,3,4,5,6-hexahydrobenzole[e][1,4]diazocin-9-yloxy)propyl]ester]
- histone H4 acetylation ([7]; 10 μM, 8 hours): less effective at inducing histone H4 acetylation
- histone H4 acetylation ([7]; 20 μM): modest acetylation was observed
- sAPPα levels ([1]; 10 μm): increase in sAPPα levels
- Aβ40 levels ([2]; 10 μM): significant decrease in Aβ40 levels
